Results: the NIST ThermoML archive (doi:10.1016/j.jct.2008.10.010)

Assay: molar heat capacity at constant pressure; xn = mol fraction of the nth substance listed
Conditions: 101.3 kPa, Liquid, Small sample (50 mg) DSC

CCC(C)(C)O [2-methylbutan-2-ol] + CCCCCCC
molar heat capacity at constant pressure [J/K/mol]
Conditions | 336.14 K | 337.15 K | 338.14 K | 338.16 K | 339.14 K | 340.15 K
x1 = 0.0061 | – | 240.08 | 240.6 | – | 241 | 241.53
x1 = 0.0249 | – | 241 | 241.26 | – | 241.65 | 242.15
x1 = 0.0494 | – | 244 | 244.22 | – | 244.45 | 244.83
x1 = 0.1 | 252.29 | 252.41 | 252.49 | – | 252.62 | 252.82
x1 = 0.1547 | 260.02 | 260.16 | – | 260.35 | 260.43 | 260.57
x1 = 0.1999 | 265.26 | 265.46 | – | 265.67 | 265.8 | 266.02
x1 = 0.2993 | 273.56 | 273.86 | 274.14 | – | 274.34 | 274.71
x1 = 0.4051 | 279.11 | 279.59 | 280.08 | – | 280.35 | 280.76
x1 = 0.4986 | 282.65 | 283.2 | 283.63 | – | 284.12 | 284.68
x1 = 0.5981 | 285.05 | 285.63 | 286.18 | – | 286.77 | –
x1 = 0.7015 | 286.5 | 287.22 | 287.86 | – | 288.43 | –
x1 = 0.8023 | 286.51 | 287.25 | 287.94 | – | 288.55 | –
x1 = 0.9139 | 285.7 | 286.44 | 287.19 | – | 287.89 | –
x1 = 0.9609 | 284.91 | 285.69 | – | 286.41 | 287.02 | –
